In publication PMC8957573 (Journal of Natural Products, 2022):

Target: T1, TAK1 (Homo sapiens, UniProt O43318)
T1 sequence (O43318 1-303 limits assumed): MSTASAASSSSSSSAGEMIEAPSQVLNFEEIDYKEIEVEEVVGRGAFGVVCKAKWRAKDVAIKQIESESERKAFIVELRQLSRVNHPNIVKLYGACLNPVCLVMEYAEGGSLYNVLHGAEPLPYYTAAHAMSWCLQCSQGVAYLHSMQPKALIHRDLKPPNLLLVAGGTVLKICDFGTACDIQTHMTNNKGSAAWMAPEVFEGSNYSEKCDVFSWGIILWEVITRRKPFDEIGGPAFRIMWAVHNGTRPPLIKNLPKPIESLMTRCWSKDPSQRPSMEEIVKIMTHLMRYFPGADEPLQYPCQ
Assay: TAK1 inhibition assay
Format: biochemical
Settings: cis-enone RALs

Inhibitory activity against TAK1 (in words): inhibit TAK1
SMILES: COc1cc(O)c2c(c1)[C@H]1O[C@@H]1C[C@H](O)[C@H](O)C(=O)/C=C\C[C@H](C)OC2=O [Hypothemycin (1), Hypothemycin]
